Assay results published in patent US20230167105A1, “BCL-2 PROTEIN INHIBITORS” (Recurium IP Holdings, LLC, priority 2020, published 2023).

Test system: MOLT-4 cells
Experiment: MOLT-4 Cell Proliferation Assay (CellTiter-Glo)
Assay type: cell-based
Conditions: Homo sapiens, 72 h, read-out: MOLT-4 CTG IC50
Protocol: Cell proliferation was measured using the CellTiter-Glo® Luminescent Cell Viability Assay. The assay involved the addition of a single reagent (CellTiter-Glo® Reagent) directly to cells cultured in serum-supplemented medium. MOLT-4 cells (ATCC, CRL-1582) were cultured according to ATCC recommendations and were seeded at 50,000 cells per well.
Each compound evaluated was prepared as a DMSO stock solution (10 mM). Compounds were tested in duplicate on each plate, with a 10-point serial dilution curve (1:3 dilution). The highest compound concentration was 10 μM (final), with a 0.1% final DMSO concentration. Plates were then incubated at 37° C., 5% CO2 for 72 h, cell plates were equilibrated at rt for approximately 30 mins. An equi-volume amount of CellTiter-Glo® Reagent (100 μL) was added to each well. Plates were mixed for 2 mins on an orbital shaker to induce cell lysis and then incubated at rt for 10 mins to stabilize the luminescent signal. Luminescence was recorded using a Envision plate reader according to CellTiter-Glo protocol. IC50 of each compound was calculated using GraphPad Prism by nonlinear regression analysis.

SMILES | IC50 [nM]
CC1(C)CCC(c2ccc(Cl)cc2)=C(CN2CCN(c3ccc(C(=O)NS(=O)(=O)c4ccc(N[C@H](CCN5CCOCC5)CSc5ccccc5)c(S(=O)(=O)C(F)(F)F)c4)cc3)CC2)C1 [ABT-263, navitoclax, reference compound] | 50 to 150
Cc1ncsc1-c1ccc([C@H](C)NC(=O)[C@@H]2C[C@@H](O)CN2C(=O)[C@@H](NC(=O)CCCCC(=O)N2CCN(CC[C@H](CSc3ccccc3)Nc3ccc(S(=O)(=O)NC(=O)c4ccc(N5CCN(CC6=C(C78CC(C(F)F)(C7)C8)CC(C)(C)CC6)CC5)cc4)cc3S(=O)(=O)C(F)(F)F)CC2)C(C)(C)C)cc1 [Example 1, (2S,4R)-1-((S)-2-(6-(4-((R)-3-((4-(N-(4-(4-((2-(3-(difluoromethyl)bicyclo[1.1.1]pentan-1-yl)-4,4-dimethylcyclohex-1-en-1-yl)methyl)piperazin-1-yl)benzoyl)sulfamoyl)-2-((trifluoromethyl)sulfonyl)phenyl)amino)-4-(phenylthio)butyl)piperazin-1-yl)-6-oxohexanamido)-3,3-dimethylbutanoyl)-4-hydroxy-N—((S)-1-(4-(4-methylthiazol-5-yl)phenyl)ethyl)pyrrolidine-2-carboxamide] | ≥ 150
CC1(C)CCC(CN2CCN(c3ccc(C(=O)NS(=O)(=O)c4ccc(N[C@H](CCN5CCN(CCCCCNc6ccc7c(c6)C(=O)N(C6CCC(=O)NC6=O)C7=O)CC5)CSc5ccccc5)c(S(=O)(=O)C(F)(F)F)c4)cc3)CC2)=C(C23CC(C(F)F)(C2)C3)C1 (stereo partly drawn) [Example 4, 4-(4-((2-(3-(difluoromethyl)bicyclo[1.1.1]pentan-1-yl)-4,4-dimethylcyclohex-1-en-1-yl)methyl)piperazin-1-yl)-N-((4-(((2R)-4-(4-(5-((2-(2,6-dioxopiperidin-3-yl)-1,3-dioxoisoindolin-5-yl)amino)pentyl)piperazin-1-yl)-1-(phenylthio)butan-2-yl)amino)-3-((trifluoromethyl)sulfonyl)phenyl)sulfonyl)benzamide] | 50 to 150
CC1(C)CCC(CN2CCN(c3ccc(C(=O)NS(=O)(=O)c4ccc(N[C@H](CCN5CCN(CCCCCNc6cccc7c6C(=O)N(C6CCC(=O)NC6=O)C7=O)CC5)CSc5ccccc5)c(S(=O)(=O)C(F)(F)F)c4)cc3)CC2)=C(C23CC(C)(C2)C3)C1 (stereo partly drawn) [Example 7, 4-(4-((4,4-dimethyl-2-(3-methylbicyclo[1.1.1]pentan-1-yl)cyclohex-1-en-1-yl)methyl)piperazin-1-yl)-N-((4-(((2R)-4-(4-(5-((2-(2,6-dioxopiperidin-3-yl)-1,3-dioxoisoindolin-4-yl)amino)pentyl)piperazin-1-yl)-1-(phenylthio)butan-2-yl)amino)-3-((trifluoromethyl)sulfonyl)phenyl)sulfonyl)benzamide] | 50 to 150
CCC12CC(C3=C(CN4CCN(c5ccc(C(=O)NS(=O)(=O)c6ccc(N[C@H](CCN7CCN(CCCCCNc8cccc9c8C(=O)N(C8CCC(=O)NC8=O)C9=O)CC7)CSc7ccccc7)c(S(=O)(=O)C(F)(F)F)c6)cc5)CC4)CCC(C)(C)C3)(C1)C2 (stereo partly drawn) [Example 10, N-((4-(((2R)-4-(4-(5-((2-(2,6-dioxopiperidin-3-yl)-1,3-dioxoisoindolin-4-yl)amino)pentyl)piperazin-1-yl)-1-(phenylthio)butan-2-yl)amino)-3-((trifluoromethyl)sulfonyl)phenyl)sulfonyl)-4-(4-((2-(3-ethylbicyclo[1.1.1]pentan-1-yl)-4,4-dimethylcyclohex-1-en-1-yl)methyl)piperazin-1-yl)benzamide] | 50 to 150
CC1(C)CCC(CN2CCN(c3ccc(C(=O)NS(=O)(=O)c4ccc(N[C@H](CCN5CCN(CCCCCCNc6cccc7c6C(=O)N(C6CCC(=O)NC6=O)C7=O)CC5)CSc5ccccc5)c(S(=O)(=O)C(F)(F)F)c4)cc3)CC2)=C(C23CC(C(F)F)(C2)C3)C1 (stereo partly drawn) [Example 11, 4-[4-[[2-[3-(difluoromethyl)-1-bicyclo[1.1.1]pentanyl]-4,4-dimethyl-cyclohexen-1-yl]methyl]piperazin-1-yl]-N-[4-[[(1R)-3-[4-[6-[[2-(2,6-dioxo-3-piperidyl)-1,3-dioxo-isoindolin-4-yl]amino]hexyl]piperazin-1-yl]-1-(phenylsulfanylmethyl)propyl]amino]-3-(trifluoromethylsulfonyl)phenyl]sulfonyl-benzamide] | ≥ 150

Other lines, results leading:

IC50 [nM] | SMILES
≤ 50 | CC1(C)CCC(CN2CCN(c3ccc(C(=O)NS(=O)(=O)c4ccc(N[C@H](CCN5CCN(CCCCCNc6cccc7c6C(=O)N(C6CCC(=O)NC6=O)C7=O)CC5)CSc5ccccc5)c(S(=O)(=O)C(F)(F)F)c4)cc3)CC2)=C(C23CC(C(F)F)(C2)C3)C1 (stereo partly drawn) [Example 2, 4-(4-((2-(3-(difluoromethyl)bicyclo[1.1.1]pentan-1-yl)-4,4-dimethylcyclohex-1-en-1-yl)methyl)piperazin-1-yl)-N-((4-(((2R)-4-(4-(5-((2-(2,6-dioxopiperidin-3-yl)-1,3-dioxoisoindolin-4-yl)amino)pentyl)piperazin-1-yl)-1-(phenylthio)butan-2-yl)amino) ((trifluoromethyl)sulfonyl)phenyl)sulfonyl)benzamide]
≤ 50 | CC1(C)CCC(CN2CCN(c3ccc(C(=O)NS(=O)(=O)c4ccc(N[C@H](CCN5CCN(CCCCCOc6cccc7c6C(=O)N(C6CCC(=O)NC6=O)C7=O)CC5)CSc5ccccc5)c(S(=O)(=O)C(F)(F)F)c4)cc3)CC2)=C(C23CC(C(F)F)(C2)C3)C1 (stereo partly drawn) [Example 3, 4-(4-((2-(3-(difluoromethyl)bicyclo [1.1.1]pentan-1-yl)-4,4-dimethylcyclohex-1-en-1-yl)methyl)piperazin-1-yl)-N-((4-(((2R)-4-(4-(5-((2-(2,6-dioxopiperidin-3-yl)-1,3-dioxoisoindolin-4-yl)oxy)pentyl)piperazin-1-yl)-1-(phenylthio)butan-2-yl)amino)-3-((trifluoromethyl)sulfonyl)phenyl)sulfonyl)benzamide]
≤ 50 | CC1(C)CCC(CN2CCN(c3ccc(C(=O)NS(=O)(=O)c4ccc(N[C@H](CCN5CCN(CCCNc6cccc7c6C(=O)N(C6CCC(=O)NC6=O)C7=O)CC5)CSc5ccccc5)c(S(=O)(=O)C(F)(F)F)c4)cc3)CC2)=C(C23CC(C(F)F)(C2)C3)C1 (stereo partly drawn) [Example 5, 4-[4-[[2-[3-(difluoromethyl)-1-bicyclo [1.1.1]pentanyl]-4,4-dimethyl-cyclohexen-1-yl]methyl]piperazin-1-yl]-N-[4-[[(1R)-3-[4-[3-[[2-(2,6-dioxo-3-piperidyl)-1,3-dioxo-isoindolin-4-yl]amino]propyl]piperazin-1-yl]-1-(phenylsulfanylmethyl)propyl]amino]-3-(trifluoromethylsulfonyl)phenyl]sulfonyl-benzamide]
≤ 50 | CC1(C)CCC(CN2CCN(c3ccc(C(=O)NS(=O)(=O)c4ccc(N[C@H](CCN5CCN(CCCCNc6cccc7c6C(=O)N(C6CCC(=O)NC6=O)C7=O)CC5)CSc5ccccc5)c(S(=O)(=O)C(F)(F)F)c4)cc3)CC2)=C(C23CC(C(F)F)(C2)C3)C1 (stereo partly drawn) [Example 8, 4-[4-[[2-[3-(difluoromethyl)-1-bicyclo[1.1.1]pentanyl]-4,4-dimethyl-cyclohexen-1-yl]methyl]piperazin-1-yl]-N-[4-[[(1R)-3-[4-[4-[[2-(2,6-dioxo-3-piperidyl)-1,3-dioxo-isoindolin-4-yl]amino]butyl]piperazin-1-yl]-1-(phenylsulfanylmethyl)propyl]amino]-3-(trifluoromethylsulfonyl)phenyl]sulfonyl-benzamide]
≤ 50 | CC1(C)CCC(CN2CCN(c3ccc(C(=O)NS(=O)(=O)c4ccc(N[C@H](CCN5CCN(CCCNc6ccc7c(c6)C(=O)N(C6CCC(=O)NC6=O)C7=O)CC5)CSc5ccccc5)c(S(=O)(=O)C(F)(F)F)c4)cc3)CC2)=C(C23CC(C(F)F)(C2)C3)C1 (stereo partly drawn) [Example 12, 4-[4-[[2-[3-(difluoromethyl)-1-bicyclo[1.1.1]pentanyl]-4,4-dimethyl-cyclohexen-1-yl]methyl]piperazin-1-yl]-N-[4-[[(1R)-3-[4-[3-[[2-(2,6-dioxo-3-piperidyl)-1,3-dioxo-isoindolin-5-yl]amino]propyl]piperazin-1-yl]-1-(phenylsulfanylmethyl)propyl]amino]-3-(trifluoromethylsulfonyl)phenyl]sulfonyl-benzamide]
≤ 50 | CC1(C)CCC(CN2CCN(c3ccc(C(=O)NS(=O)(=O)c4ccc(N[C@H](CCN5CCN(CCCCNc6ccc7c(c6)C(=O)N(C6CCC(=O)NC6=O)C7=O)CC5)CSc5ccccc5)c(S(=O)(=O)C(F)(F)F)c4)cc3)CC2)=C(C23CC(C(F)F)(C2)C3)C1 (stereo partly drawn) [Example 13, 4-[4-[[2-[3-(difluoromethyl)-1-bicyclo[1.1.1]pentanyl]-4,4-dimethyl-cyclohexen-1-yl]methyl]piperazin-1-yl]-N-[4-[[(1R)-3-[4-[4-[[2-(2,6-dioxo-3-piperidyl)-1,3-dioxo-isoindolin-5-yl]amino]butyl]piperazin-1-yl]-1-(phenylsulfanylmethyl)propyl]amino]-3-(trifluoromethylsulfonyl)phenyl]sulfonyl-benzamide]
